Columns and labels:
[1] = system: cells; test: Cell images of cells co-cultured with the components of the nano/micro bubbles (FITC-insulin transmission); assay type: cell-based; conditions: cells co-cultured with the component; stained with Cld 4, E-cadherin, DAPI; FIG. 3
[2] = system: diabetic rats; test: Blood glucose change in diabetic rats after oral or subcutaneous administration; assay type: in vivo, male Wistar rats; conditions: subcutaneous injection, 5 IU/kg, 0 to 10 hours; FIG. 5
Procedure: Animal experimental procedures were performed based on the management and use of laboratory animals guidelines promulgated by the Council of Agriculture. About 300 to 350 grams of male rats (male Wistar rats) were used. The animal experiments were performed to investigate the treatment of diabetic rats using insulin-embedded carrier system by oral administration of drugs. During experiment, the rats were administrated by oral (30 IU/Kg) and subcutaneous (5 IU/Kg) administration after the rats were fixed. At different times, the animals were placed in the blood-drawing fixation frame to expose the tail, and then the tails were disinfected with iodine to prevent bacterial infection. […] Meanwhile, pharmacokinetics was measured using enzyme immunoassay. In the present example, groups comprising nano/micro bubbles of the present invention (containing 30 IU/kg of insulin), oral administration (30 IU/kg of insulin) and subcutaneous injection of insulin (5 IU/kg) are compared. The change rates in plasma insulin and blood glucose concentration from 0 to 10 hours after subjects taking insulin or injected with insulin were recorded respectively, and the results are illustrated in FIGS. 5a and 5b.

Compound	transmission of FITC-insulin (pathway) [1]	change rate of the blood glucose [2]
O=C(O)CN(CCN1CC(=O)OC(=O)C1)CCN1CC(=O)OC(=O)C1 [DTPA dianhydride, diethylenetriaminepentaacetic dianhydride]	can promote transmission of FITC-insulin via paracellular pathway	
CCCCCCCCCCCCOS(=O)(=O)[O-].[Na+] [SDS]	can promote transmission of FITC-insulin via both of paracellular pathway and transcellular pathway	
insulin		rapidly declined and rose again

From patent US9452130B2, “Pharmaceutical composition for preparing drug delivery nano/micro bubbles” (priority 2014, dated 2016)
